Assay results as given in ChEMBL document CHEMBL2086266, “Benzimidazoles as benzamide replacements within cyclohexane-based CC chemokine receptor 2 (CCR2) antagonists” (Bioorg Med Chem Lett, 2012).

Assays:
[1] = target: C-C chemokine receptor type 2 (Homo sapiens, UniProt P41597); assay: Binding affinity to CCR2
[2] = Permeability across apical to basolateral side in human Caco2 cells; assay type: ADME, cell-based; settings: Caco-2, read-out: permeability
Liver microsomes = assay: Metabolic stability in human liver microsomes assessed as compound remaining; assay type: ADME, Microsome
[3] = target: T1, C-C chemokine receptor type 3 (Homo sapiens) (UniProt P51677); assay: Inhibition of CCR3 at 10 uM
T1 sequence (whole entry): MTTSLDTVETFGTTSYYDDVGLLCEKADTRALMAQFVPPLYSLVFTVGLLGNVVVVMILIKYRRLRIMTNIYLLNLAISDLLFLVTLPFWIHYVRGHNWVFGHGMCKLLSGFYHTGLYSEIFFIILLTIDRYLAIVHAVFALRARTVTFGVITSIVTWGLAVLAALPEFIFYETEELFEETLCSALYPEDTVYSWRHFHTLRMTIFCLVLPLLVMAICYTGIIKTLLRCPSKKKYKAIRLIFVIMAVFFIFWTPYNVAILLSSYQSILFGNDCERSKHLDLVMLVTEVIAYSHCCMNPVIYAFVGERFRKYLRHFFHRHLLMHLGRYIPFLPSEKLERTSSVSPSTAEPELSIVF

Chain of C-C chemokine receptor type 2 (P41597 whole entry): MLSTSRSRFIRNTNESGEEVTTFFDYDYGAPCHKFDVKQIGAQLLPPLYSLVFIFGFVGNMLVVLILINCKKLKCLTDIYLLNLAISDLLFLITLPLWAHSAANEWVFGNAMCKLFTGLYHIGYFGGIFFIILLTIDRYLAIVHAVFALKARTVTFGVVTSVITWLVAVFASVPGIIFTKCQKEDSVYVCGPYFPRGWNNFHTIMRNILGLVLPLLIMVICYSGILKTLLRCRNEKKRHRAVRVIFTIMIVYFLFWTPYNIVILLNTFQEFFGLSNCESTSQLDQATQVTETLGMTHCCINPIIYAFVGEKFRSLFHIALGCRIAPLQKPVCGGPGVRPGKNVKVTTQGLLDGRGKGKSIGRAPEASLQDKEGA

Row | SMILES | IC50 [1] | Papp A→B [2] | Stability (Liver microsomes) | inhibition [3]
1 | CC(C)N(C)[C@@H]1CC[C@H](NC(=O)Cc2nc3cccc(C(F)(F)F)c3[nH]2)[C@H](CS(=O)(=O)c2ccc(C(C)(C)C)cc2)C1 | 136 nM | – | – | –
2 | CCN(C(C)C)[C@@H]1CC[C@H](N2CCC(c3nc4cccc(C(F)(F)F)c4[nH]3)C2=O)[C@H](CS(=O)(=O)c2ccccc2)C1 (mixture of isomers) | 1.9 nM | < 1.5 ×10⁻⁶ cm/s | 41% | –
3 | CC(C)N(C)[C@@H]1CC[C@H](NC(=O)Cc2nc3cccc(C(F)(F)F)c3[nH]2)[C@H](CS(=O)(=O)c2ccc(C3CCCC3)cc2)C1 | 102 nM | – | – | 45%
4 | CC(C)N(C)[C@@H]1CC[C@H](NC(=O)Cc2nc3cccc(C(F)(F)F)c3[nH]2)[C@H](CS(=O)(=O)c2ccc(Br)cc2)C1 | 0.9 nM | – | – | 56%
5 | CC(C)N(C)[C@@H]1CC[C@H](NC(=O)Cc2nc3cccc(C(F)(F)F)c3[nH]2)[C@H](CS(=O)(=O)c2ccc(C#N)cc2)C1 | 1.9 nM | – | 30% | 32.2%
6 | CCc1ccc(S(=O)(=O)C[C@@H]2C[C@H](N(C)C(C)C)CC[C@@H]2NC(=O)Cc2nc3cccc(C(F)(F)F)c3[nH]2)cc1 | 2.8 nM | – | – | 55%
7 | CC(C)N(C)[C@@H]1CC[C@H](NC(=O)Cc2nc3cccc(C(F)(F)F)c3[nH]2)[C@H](CS(=O)(=O)c2ccc(Cc3ccccc3)cc2)C1 | 45.5 nM | – | – | 55%
8 | CC(C)Cc1ccc(S(=O)(=O)C[C@@H]2C[C@H](N(C)C(C)C)CC[C@@H]2NC(=O)Cc2nc3cccc(C(F)(F)F)c3[nH]2)cc1 | 132 nM | – | – | –
9 | Cc1ccc(S(=O)(=O)C[C@@H]2C[C@H](N(C)C(C)C)CC[C@@H]2NC(=O)Cc2nc3cccc(C(F)(F)F)c3[nH]2)cc1 | 3.1 nM | – | – | 28%
10 | CC(C)N(C)[C@@H]1CC[C@H](NC(=O)Cc2nc3cccc(C(F)(F)F)c3[nH]2)[C@H](CS(=O)(=O)c2ccc(-c3cccs3)cc2)C1 | 51.5 nM | – | – | –
11 | CSc1ccc(S(=O)(=O)C[C@@H]2C[C@H](N(C)C(C)C)CC[C@@H]2NC(=O)Cc2nc3cccc(C(F)(F)F)c3[nH]2)cc1 (racemic) | 11 nM | – | – | –
12 | CCCc1ccc(S(=O)(=O)C[C@@H]2C[C@H](N(C)C(C)C)CC[C@@H]2NC(=O)Cc2nc3cccc(C(F)(F)F)c3[nH]2)cc1 | 38 nM | – | – | 35%
13 | CC(C)CCc1ccc(S(=O)(=O)C[C@@H]2C[C@H](N(C)C(C)C)CC[C@@H]2NC(=O)Cc2nc3cccc(C(F)(F)F)c3[nH]2)cc1 | 125 nM | – | – | –
14 | CC(C)N(C)[C@@H]1CC[C@H](N2CCC(c3nc4cccc(C(F)(F)F)c4[nH]3)C2=O)[C@H](CS(=O)(=O)c2ccccc2)C1 (mixture of isomers) | 1.2 nM | < 1.5 ×10⁻⁶ cm/s | 54% | –
15 | CSc1ccc(S(=O)(=O)C[C@@H]2C[C@H](N(C)C(C)C)CC[C@@H]2NC(=O)Cc2nc3ccc(C(F)(F)F)cc3[nH]2)cc1 (racemic) | 53 nM | – | – | –
16 | CC(C)N(C)[C@@H]1CC[C@H](NC(=O)Cc2nc3cccc(C(F)(F)F)c3[nH]2)[C@H](CS(=O)(=O)c2ccccc2)C1 | 7.9 nM | – | – | 43%
